These results are taken from article PMC9839752, “Formaldehyde reacts with N-terminal proline residues to give bicyclic aminals” (Communications Chemistry, 2023).

Like-named read-outs stand apart in the source and are kept apart here. Peptide text beside a SMILES is read from it.

A short description of series [1]: NMR stability of HCHO adducts to HCHO scavengers and pH. Type of series: physicochemical. Conditions: for stability of HCHO adduct to 1,3-cyclohexanedione (1,3-CHD): 40-fold excess 1,3-CHD, pD 10, analysis period 22 h. Here is the method:
To investigate the stability and reversibility of the HCHO adducts (1a + b, 2a, 3a, 4a), the dipeptides were reacted with a 10-fold excess of HCHO at pD 10, then treated with the HCHO scavenger 1,3-cyclohexanedione (1,3-CHD)[14]. […]
(§1) NMR Time Course and Stability – Dipeptides
(§2) The dipeptide (23.3 µmol) was dissolved in D 2O; the pD was adjusted to 10 (corresponding to pH 9.6) using NaOD and DCl (total volume: 1 mL, 23.3 mM stock). HCHO (30.0 mg, 1.0 mmol) was suspended with D2O in a sealed microwave vial and heated until a clear colourless solution was obtained; the pD was then adjusted with NaOD and DCl to 10 (total volume: 3 mL, 1/3 M stock). For time course measurements, the dipeptide stock solutions (100 μL, 2.33 μmol) at pD 10 and D 2O (400 μL) were mixed and recorded. HCHO (70 μL, 23.3 μmol, 10 equivalents) at pD 10 was added and progress was monitored for the indicated time. To investigate the stability of the NMR-observed HCHO adducts, a 40-fold excess with respect to starting material of the HCHO scavenger 1,3-cyclohexanedione (1,3-CHD, 93.2 μL from 1 M stock in D2O) was added.
Additionally, stability studies of the HPLC -purified 2a and the corresponding pentapeptide PEPAK-HCHO adduct were conducted. To achieve a 40-fold excess of HCHO scavengers (46.8 μmol) with respect to peptide starting material, the appropriate volumes of GSH (186.4 μL from 250 mM stock), cysteine (46.6 μL from 1 M stock) or 1,3 -cyclohexanedione (46.6 μL from 1 M stock) were added to the peptide-HCHO adducts (50 μL, 1.17 μmol, 23.3 mM stock in D2O) in 400 μL of D2O, thoroughly mixed and recorded. To test for stability of the adduct in different pH conditions, HPLC purified 2a (45 μL of 23.3 mM stock) was dissolved in 405 μL of 50 mM potassium phosphate buffer (D2O) at pH 5.9, 7.4 and 8.5 (pD 6.3, 7.8 and 8.9), thoroughly mixed and recorded.

A short description of series [2]: 1H NMR time course of reaction of dipeptides with HCHO. Type of series: physicochemical. Conditions: dipeptide with 10-fold excess HCHO, pD 10, 1H NMR. The method, then: Fig. 3 HCHO reacts with an N-terminal proline to form a methylene bridge between an N-terminal nitrogen and the adjacent peptide bond nitrogen. a Products of reactions between HCHO and the dipeptides AzeGlu (n = 1, 1), ProGlu (n = 2, 2), and PipGlu (n = 3, 3). A 10-fold molar excess of aqueous HCHO (410 µmol) was added to each dipeptide (41 µmol).
The reactions of the dipeptides with HCHO (10-fold excess, pD 10) were studied in real time by ^1H NMR (Figs. 3c and S18). […] Dipeptide 2 was slower to react (2a formation rate 0.24 μM s^−1), while 3 was the slowest to react (3a formation rate 0.054 μM s^−1). […]
as §1
as §2, with “added. […]” for “added.”

Series [3] in a line: in vitro. The note with it: human, hek293t cells. The method, then:
(§3) We then investigated whether the H2B-HCHO adduct can be identified in human HEK293T cells treated with HCHO. […] Given that N-terminal amino acids and their modifications can regulate protein stability by affecting degradation (the N-end rule)[27], we next investigated whether addition of HCHO to cells affects H2B turnover. HEK293T cells were treated with cycloheximide (CHX) to inhibit protein synthesis, with addition of HCHO and protein quantification.
(§4) (1 picture or pasted object on this page, not shown here)

In series [4] the test system is H2B mRNA. Conditions: HEK293T, HCHO 150+225 µM vs untreated, q = 0.043. Here is the method: as §3
(§5) Figure S26 | Stability of proteins with an N-terminal proline in the presence of HCHO and RNA-Seq analyses. a) HEK293T cells were treated with 120 µM HCHO (or acetone, or MQ water control; 100 mM stock solutions of carbonyl compounds in MQ water) for 14 h. The cells were then treated with 100 µM cycloheximide (CHX; from a 100 mM DMSO stock solution) and were harvested after 3 h.
(§6) Additionally, HEK293T cells were treated with 120 µM HCHO (or acetone, or MQ water control) for 14 h, followed by addition of CHX. 7.5 h after the CHX treatment, a further 180 µM of the carbonyl […]
as §4
(§7) (ab133512). Secondary antibodies used were anti-mouse IgG, HRP-linked Antibody (Cell Signaling, reference 7076), anti-Rabbit IgG (H+L) HRP Conjugate (Promega reference W4011).
HEK293T cells (0.9x106) were seeded into 6 cm dishes as biological triplicates. […]

For series [5], the system named is H2A mRNA. The note with it: HEK293T, HCHO-treated vs untreated, q = 0.043. The method, then: as §3, §7
(§8) HEK293T cells (0.9x106) were seeded into 6 cm dishes as biological triplicates. The next day, cells were treated with 150 μM HCHO (or MQ water control), followed by another cumulative treatment of 225 μM HCHO (or MQ water control) the day after that. Cells were harvested 4 h af ter the second

In series [6] the test system is H3 mRNA. Conditions: HEK293T, HCHO-treated vs untreated, q = 0.034. Here is the method: as §3, §7, §8
Series [7] deals with H2A. Conditions: HEK293T, HCHO, CHX (100 µM). The method, then:
as §3, §5, §6, §4

In series [8] the test system is H2B. The note with it: HEK293T, HCHO, >10 h CHX (100 µM). Here is the method:
as §3, §5, §6, §4

Series [9] concerns H3. The note with it: HEK293T, HCHO, CHX (100 µM). The method, then:
as §3, §5, §6, §4

Series [10] addresses leukotriene A-4 hydrolase (LTA4H) (Homo sapiens, UniProt P09960). The note with it: HEK293T, CHX (100 µM). The method, then: as §3, §5, §6, §4
Series [11] addresses T1, 4-oxalocrotonate tautomerase (4-OT) (Pseudomonas putida, UniProt Q01468). Conditions: 4-OT (52.9 µM) pre-incubated with 200 equivalents of HCHO (10.6 mM) 17 h, 37 °C; buffer control complete after 14 min.
The test system of series [12] is BL21(DE3) cells.
Series [13] has as its target T2, 4-OT (Pseudomonas putida, UniProt Q01468). Nature of the series: cell-based.
In series [14] the target is T1, 4-oxalocrotonate tautomerase (4-OT). As to the kind of experiment: biochemical.
For series [15], the target named is T2, 4-OT. As to the kind of experiment: 4-OT absorbance assay (320 nm), kinetic parameters. In kind it is biochemical. The note with it: substrate acetaldehyde, 375 µM trans-β-nitrostyrene, 10 µM 4-OT, pH 7.4.
For series [16], the target named is T3, human JmjC KDM KDM4E (Homo sapiens, UniProt B2RXH2).
T3 construct: made in house; host or cells: E. coli BL21(DE3)
T3 sequence (B2RXH2 with tags, fused parts or gaps): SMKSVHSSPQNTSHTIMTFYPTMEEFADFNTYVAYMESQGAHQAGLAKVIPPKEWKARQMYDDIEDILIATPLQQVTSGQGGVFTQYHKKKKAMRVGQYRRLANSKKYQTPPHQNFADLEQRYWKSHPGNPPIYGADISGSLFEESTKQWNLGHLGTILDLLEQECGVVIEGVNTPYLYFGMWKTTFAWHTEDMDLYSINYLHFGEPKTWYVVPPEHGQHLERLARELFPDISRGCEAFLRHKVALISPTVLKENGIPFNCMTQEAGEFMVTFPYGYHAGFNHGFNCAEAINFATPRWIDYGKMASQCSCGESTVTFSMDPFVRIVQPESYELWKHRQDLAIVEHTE
As to the kind of experiment: KDM4E-catalysed H3K9Me3 peptide demethylation, MALDI MS. Type of series: biochemical. Conditions: 800 μM NOG instead of 2OG, 24 h.

T2 sequence (Q01468 2-63 limits assumed): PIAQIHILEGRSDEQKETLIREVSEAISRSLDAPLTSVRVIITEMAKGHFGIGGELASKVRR
T1 sequence (Q01468 2-63): as the sequence (Q01468 2-63 limits assumed) above
Chain of leukotriene A-4 hydrolase (LTA4H) (P09960 2-611 limits assumed): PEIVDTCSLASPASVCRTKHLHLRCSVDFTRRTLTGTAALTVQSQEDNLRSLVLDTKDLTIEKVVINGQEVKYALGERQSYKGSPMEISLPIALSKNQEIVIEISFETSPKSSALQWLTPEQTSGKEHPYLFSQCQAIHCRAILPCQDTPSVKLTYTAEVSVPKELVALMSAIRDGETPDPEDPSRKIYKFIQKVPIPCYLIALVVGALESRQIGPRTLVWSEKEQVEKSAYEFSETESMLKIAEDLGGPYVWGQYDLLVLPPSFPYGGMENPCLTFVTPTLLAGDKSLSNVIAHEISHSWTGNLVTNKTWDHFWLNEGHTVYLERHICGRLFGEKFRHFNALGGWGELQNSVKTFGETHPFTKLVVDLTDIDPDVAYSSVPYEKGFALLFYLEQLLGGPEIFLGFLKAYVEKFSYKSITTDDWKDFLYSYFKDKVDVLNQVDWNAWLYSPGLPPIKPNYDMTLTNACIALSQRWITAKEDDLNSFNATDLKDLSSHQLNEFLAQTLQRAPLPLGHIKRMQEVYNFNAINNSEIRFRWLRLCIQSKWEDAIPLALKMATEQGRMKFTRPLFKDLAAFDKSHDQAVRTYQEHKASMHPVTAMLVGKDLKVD

Regarding `C[C@H]1C(=O)N([C@@H](CCC(=O)O)C(=O)O)CN1CO` [4a], the “stability of HCHO adduct to 1,3-cyclohexanedione (1,3-CHD)” value (“stability of HCHO adduct” for short) in [1] is recorded as “hemiaminal group of 4a was lost to give 4b”.

Take `C[C@H](N)C(=O)N[C@@H](CCC(=O)O)C(=O)O` [compound 4, AlaGlu] (H-Ala-Glu-OH): the “formation rate of HCHO adduct” value in series [2] is on record as “did not react to give a detected product”.

A word on the EC50: it is the concentration that produces a half-maximal response. High values mean a less potent agent, low ones a more potent agent. One may read the IC50 as the concentration needed to halve the response being measured. A lower IC50 goes with higher potency. Take `C=O` [HCHO, Formaldehyde]: in [3], the MNTC is more than 200 µM. In addition, the “H2B mRNA level, fold less in untreated cells” value in [4] stood at 0.37 fold. Besides, the “H2A mRNA level, fold less in untreated cells” value in series [5] is on record as 0.33 fold. In [6], the “H3 mRNA level, fold less in untreated cells” value was determined as 0.42 fold. Further, the “H2A levels after prolonged CHX treatment” value in series [7] is on record as “higher levels”. Moreover, the “H2B levels after prolonged CHX treatment” value in series [8] was “apparently higher H2B levels”. In addition, the “H3 levels after prolonged CHX treatment” value in series [9] is given as “higher levels”. The “HCHO-dependent effect on LTA4H stability” value in series [10] was “no evidence for a HCHO-dependent effect on its stability”. For the same molecule, the “time to near-complete substrate conversion” value in series [11] is more than 72 min. For the same molecule, the “effect on cell proliferation” value is reported as “did not inhibit” in series [12] (350 μM HCHO) and “only mildly inhibited” in [12] (700 μM HCHO). Besides, the EC50 in series [13] is approximately 350 µM. In series [14], this molecule registered a concentration for half-maximal inhibition (IC50) of less than 10000 µM.

One may read the Km as the concentration of substrate that gives half-maximal velocity. As to `CC=O` [acetaldehyde], the Km in [15] was found to be 74 mM.

As to `O=C(O)CC[C@@H](C(=O)O)N1CN2CC[C@H]2C1=O` [1a], the “formation rate of HCHO adduct” value in [2] was more than 1.73 µM/s. For the same molecule, the “stability of HCHO adduct” value in [1] was “underwent 1,3-CHD-enabled reaction to give 1”.

For `O=C(O)CNC(=O)C(=O)O` [N-oxalylglycine], in series [16], the “effect on H3K9Me3 demethylation and +12 Da H2B adduct formation” value is reported as “abolished”.

Regarding `O=C(O)CC[C@H](NC(=O)[C@@H]1CCN1CO)C(=O)O` [1b], in [1], the “stability of HCHO adduct” value is “underwent 1,3-CHD-enabled reaction to give 1”.

With `O=C(O)CC[C@@H](C(=O)O)N1CN2CCCC[C@H]2C1=O` [3a], the “formation rate of HCHO adduct” value in [2] turned out to be 0.054 µM/s. Moreover, the “stability of HCHO adduct” value in series [1] is recorded as “relatively stable”.

Consider `O=C(O)CC[C@@H](C(=O)O)N1CN2CCC[C@H]2C1=O` [2a], for which the “formation rate of HCHO adduct” value in series [2] was found to be 0.24 µM/s. Further, in series [1], the “stability of HCHO adduct” value is listed as “relatively stable”. In [1] (pH 5.9, 7.4 and 8.5), the “stability across a biologically relevant pH range” value was “apparently stable”. Moreover, the “stability in the presence of HCHO scavengers cysteine and GSH” value in series [1] (scavengers in 40-fold excess) is given as “apparently stable”.
